The target of assay [1] is T1, K. pneumoniae PPK1 (KP) (Klebsiella pneumoniae, UniProt A6TCB5). As to the kind of experiment: biochemical. Set-up: gene ppk.
Another assay has as its target T2, PPK1A (Acinetobacter baumannii, UniProt A0A0D5YJ41).
T2 construct: gene ppk1; AB5075 PPK1A (ABUW_2072), C-terminal His6-tag
As to the kind of experiment: polyP synthesis kinetics with purified enzyme, varying ATP. It is filed as biochemical.

In the next assay the target is T3, PPK1B (Acinetobacter baumannii, UniProt A0A0D5YLD5).
T3 construct: gene ppk2; AB5075 PPK1B (ABUW_2907), N-terminal His6-tag
Described as above. It counts as biochemical.

For assay [2], the target named is T1, K. pneumoniae PPK1 (KP). As to the kind of experiment: polyP synthesis, toluidine blue A630/[…]. It counts as biochemical. Set-up: gene ppk; codon-optimised gene in pET28a, C-terminal His6-tag, E. coli BL21, Ni-NTA purified.

The values below come from article PMC8576328, “Broad-Spectrum Inhibitor of Bacterial Polyphosphate Homeostasis Attenuates Virulence Factors and Helps Reveal Novel Physiology of Klebsiella pneumoniae and Acinetobacter baumannii” (Frontiers in Microbiology, 2021).

Each structure is given as a SMILES string.

T1 sequence (A6TCB5 entry or part of it): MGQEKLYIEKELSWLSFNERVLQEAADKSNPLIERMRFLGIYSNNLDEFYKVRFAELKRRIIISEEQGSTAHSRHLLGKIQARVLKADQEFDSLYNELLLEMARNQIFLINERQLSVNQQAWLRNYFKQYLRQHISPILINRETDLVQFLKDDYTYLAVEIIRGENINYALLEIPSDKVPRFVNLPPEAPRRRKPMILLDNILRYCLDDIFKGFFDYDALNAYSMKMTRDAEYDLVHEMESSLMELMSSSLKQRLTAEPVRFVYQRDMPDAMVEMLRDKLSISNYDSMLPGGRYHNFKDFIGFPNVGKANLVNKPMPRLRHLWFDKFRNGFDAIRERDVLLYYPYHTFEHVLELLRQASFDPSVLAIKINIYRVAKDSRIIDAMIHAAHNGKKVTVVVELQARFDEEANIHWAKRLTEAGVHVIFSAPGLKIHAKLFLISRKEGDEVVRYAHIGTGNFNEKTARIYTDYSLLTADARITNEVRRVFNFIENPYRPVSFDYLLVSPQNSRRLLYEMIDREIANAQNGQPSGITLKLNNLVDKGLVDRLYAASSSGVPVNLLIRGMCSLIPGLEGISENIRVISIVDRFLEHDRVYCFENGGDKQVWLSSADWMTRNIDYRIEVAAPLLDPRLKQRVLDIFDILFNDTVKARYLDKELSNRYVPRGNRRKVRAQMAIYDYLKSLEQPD
T2 sequence (A0A0D5YJ41 entry or part of it): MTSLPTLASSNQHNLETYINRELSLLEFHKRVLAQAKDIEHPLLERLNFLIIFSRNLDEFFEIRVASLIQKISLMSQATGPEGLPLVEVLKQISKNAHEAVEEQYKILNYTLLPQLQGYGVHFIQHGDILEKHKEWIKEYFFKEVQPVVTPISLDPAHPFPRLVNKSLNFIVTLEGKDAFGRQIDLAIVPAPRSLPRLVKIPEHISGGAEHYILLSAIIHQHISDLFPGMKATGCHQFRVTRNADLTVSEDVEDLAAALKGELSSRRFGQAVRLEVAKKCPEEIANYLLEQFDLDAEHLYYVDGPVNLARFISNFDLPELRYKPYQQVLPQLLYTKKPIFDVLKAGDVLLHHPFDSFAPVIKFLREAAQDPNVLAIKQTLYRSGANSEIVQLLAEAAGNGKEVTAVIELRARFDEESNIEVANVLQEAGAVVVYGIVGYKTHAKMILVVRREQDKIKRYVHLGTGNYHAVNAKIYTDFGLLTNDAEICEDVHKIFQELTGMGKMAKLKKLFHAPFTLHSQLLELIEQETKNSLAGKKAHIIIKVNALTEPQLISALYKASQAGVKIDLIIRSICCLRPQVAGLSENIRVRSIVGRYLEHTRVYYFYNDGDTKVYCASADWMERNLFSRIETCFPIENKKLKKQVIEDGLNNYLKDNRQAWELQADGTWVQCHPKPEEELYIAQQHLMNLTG
T3 sequence (A0A0D5YLD5 entry or part of it): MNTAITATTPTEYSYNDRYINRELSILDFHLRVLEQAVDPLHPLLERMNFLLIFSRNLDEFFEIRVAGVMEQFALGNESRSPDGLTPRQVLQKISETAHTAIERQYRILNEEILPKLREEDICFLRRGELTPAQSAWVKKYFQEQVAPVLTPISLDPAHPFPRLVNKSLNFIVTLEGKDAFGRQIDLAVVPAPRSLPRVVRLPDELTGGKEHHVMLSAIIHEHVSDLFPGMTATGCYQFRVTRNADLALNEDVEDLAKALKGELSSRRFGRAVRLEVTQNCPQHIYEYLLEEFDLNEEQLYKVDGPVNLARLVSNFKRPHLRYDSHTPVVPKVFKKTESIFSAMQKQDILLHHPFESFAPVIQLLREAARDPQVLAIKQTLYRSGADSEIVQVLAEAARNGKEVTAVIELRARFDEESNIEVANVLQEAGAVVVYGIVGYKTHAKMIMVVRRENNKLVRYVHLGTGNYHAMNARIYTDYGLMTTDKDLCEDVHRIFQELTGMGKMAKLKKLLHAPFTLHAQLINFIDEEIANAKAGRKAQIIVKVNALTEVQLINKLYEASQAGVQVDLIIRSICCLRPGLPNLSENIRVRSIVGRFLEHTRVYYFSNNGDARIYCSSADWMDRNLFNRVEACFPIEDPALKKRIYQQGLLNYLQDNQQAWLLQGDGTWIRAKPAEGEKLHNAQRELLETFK

Turning to `Nc1ncnc2c1ncn2[C@@H]1O[C@H](COP(=O)(O)OP(=O)(O)OP(=O)(O)O)[C@@H](O)[C@H]1O` [ATP], the affinity on K. pneumoniae PPK1 (KP) [1], expressed as Ki, was 9.33 ± 1.69 mM.
Turning to `O=C1OC2(c3ccccc31)c1ccc(O)c(O)c1Oc1c2ccc(O)c1O` [gallein], the “polyP synthesis kinetics with purified enzyme, varying ATP” value at PPK1A was “Both PPK1A and PPK1B were capable of in vitro polyP synthesis, and also exhibited inhibition by gallein”; at PPK1B it was “Both PPK1A and PPK1B were capable of in vitro polyP synthesis, and also exhibited inhibition by gallein”. Further, the IC50 (as a rule, the point on the concentration scale where inhibition reaches its midpoint) on K. pneumoniae PPK1 (KP) [2] was 16.5 µM.
